Experimental data: patent US20260184710A1, “CASITAS B-LINEAGE LYMPHOMA PROTOONCOGENE B (CBL-B) DEGRADING COMPOUNDS AND ASSOCIATED METHODS OF USE” (Arvinas Operations, Inc., priority 2022, published 2026)

Target: T1, Cbl-b (Homo sapiens, UniProt Q13191)
T1 construct: Cbl-b-HiBit KI Jurkat Cells were purchased from Promega; host or cells: Cbl-b-HiBiT knock-in Jurkat cells
Assay: Cbl-b Degradation Method B (Nano-Glo HiBiT lytic detection)
Format: cell-based
Conditions: Cbl-b-HiBit KI Jurkat Cells, incubated at least 6-24 hours; for DC50: half maximal degradation, read-out: Cbl-b Degredation Method B IC50; for Dmax: maximum degradation observed, read-out: Cbl-b Degredation Method B Dmax (%)
Outline: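 An 11-point, 3-fold compound dilution was applied for 6-24 hours to Jurkat cells carrying HiBiT-tagged endogenous Cbl-b. Lytic HiBiT luminescence quantified residual protein. Outputs are DC50 and Dmax relative to DMSO control.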

T1 sequence (Q13191 whole entry): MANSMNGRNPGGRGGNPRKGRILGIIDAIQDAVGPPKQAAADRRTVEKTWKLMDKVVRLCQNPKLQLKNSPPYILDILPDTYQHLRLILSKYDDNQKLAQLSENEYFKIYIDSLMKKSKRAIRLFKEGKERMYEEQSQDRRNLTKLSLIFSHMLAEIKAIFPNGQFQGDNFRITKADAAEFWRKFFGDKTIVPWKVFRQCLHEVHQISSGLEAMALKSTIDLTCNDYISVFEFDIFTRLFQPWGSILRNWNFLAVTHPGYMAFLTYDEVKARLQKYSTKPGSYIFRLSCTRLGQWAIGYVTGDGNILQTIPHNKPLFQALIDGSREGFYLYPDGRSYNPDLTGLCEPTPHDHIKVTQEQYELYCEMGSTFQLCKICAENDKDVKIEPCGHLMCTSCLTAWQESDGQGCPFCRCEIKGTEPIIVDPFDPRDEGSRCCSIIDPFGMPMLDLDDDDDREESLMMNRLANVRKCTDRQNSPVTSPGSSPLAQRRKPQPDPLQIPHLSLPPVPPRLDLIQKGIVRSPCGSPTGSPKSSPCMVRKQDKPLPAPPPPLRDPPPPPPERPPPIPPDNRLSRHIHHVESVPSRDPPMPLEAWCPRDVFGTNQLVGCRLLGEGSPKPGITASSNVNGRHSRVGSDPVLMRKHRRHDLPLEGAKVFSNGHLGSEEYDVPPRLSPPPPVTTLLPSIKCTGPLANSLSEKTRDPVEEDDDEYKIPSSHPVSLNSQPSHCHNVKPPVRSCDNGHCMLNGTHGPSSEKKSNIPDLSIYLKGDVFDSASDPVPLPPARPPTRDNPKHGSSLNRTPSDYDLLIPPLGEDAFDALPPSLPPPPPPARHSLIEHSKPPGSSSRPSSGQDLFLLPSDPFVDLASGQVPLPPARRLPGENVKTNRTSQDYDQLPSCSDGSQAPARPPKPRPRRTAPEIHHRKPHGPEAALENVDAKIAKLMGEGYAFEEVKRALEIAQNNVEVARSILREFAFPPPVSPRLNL

| Compound | DC50 [nM] | Dmax [%] |
| --- | --- | --- |
| CC1c2nc(N3CCC(CN4CCN(CC5CCN(Cc6cc7c(c(C(F)(F)F)c6)CN(c6cccc([C@]8(Cc9nncn9C)C[C@@H](C#N)C8)c6)C7=O)CC5)C(C)(C)C4)CC3)ccc2C(=O)N1C1CCC(=O)NC1=O (stereo partly drawn) [Example 287, (1r,3r)-3-(3-{6-[(4-{[4-({1-[6-(2,6-dioxopiperidin-3-yl)-7-methyl-5-oxo-5H,6H,7H-pyrrolo[3,4-b]pyridin-2-yl]piperidin-4-yl}methyl)-2,2-dimethylpiperazin-1-yl]methyl}piperidin-1-yl)methyl]-1-oxo-4-(trifluoromethyl)-2,3-dihydro-1H-isoindol-2-yl}phenyl)-3-[(4-methyl-4H-1,2,4-triazol-3-yl)methyl]cyclobutane-1-carbonitrile] | > 500 |  |
| Cn1cnnc1C[C@]1(c2cccc(N3Cc4c(cc(CN5CCN(C[C@H]6CC[C@H](OC7CCN(c8ccnc(C(=O)NC9CCC(=O)NC9=O)c8)CC7)CC6)CC5)cc4C(F)(F)F)C3=O)c2)C[C@H](C#N)C1 (stereo partly drawn) [Example 200, N-(2,6-dioxopiperidin-3-yl)-4-(4-{[(1r,4r)-4-({4-[(3-oxo-2-{3-[(1r,3r)-3-cyano-1-[(4-methyl-4H-1,2,4-triazol-3-yl)methyl]cyclobutyl]phenyl}-7-(trifluoromethyl)-2,3-dihydro-1H-isoindol-5-yl)methyl]piperazin-1-yl}methyl)cyclohexyl]oxy}piperidin-1-yl)pyridine-2-carboxamide] | > 500 |  |
| COc1ccc(N2CCC(CN3CCN(Cc4cc5c(c(C(F)(F)F)c4)CN(c4cccc(C6(Cc7nncn7C)COC6)c4)C5=O)CC3)CC2)cc1C(=O)NC1CCC(=O)NC1=O (stereo not drawn) [Example 56, N-(2,6-dioxopiperidin-3-yl)-2-methoxy-5-{4-[(4-{[2-(3-{3-[(4-methyl-4H-1,2,4-triazol-3-yl)methyl]oxetan-3-yl}phenyl)-3-oxo-7-(trifluoromethyl)-2,3-dihydro-1H-isoindol-5-yl]methyl}piperazin-1-yl)methyl]piperidin-1-yl}benzamide] | > 500 |  |
| Cn1cnnc1CC1(c2cccc(N3Cc4c(cc(CN[C@H]5CC[C@H](N6CCN(c7ccc8c(c7)C(=O)N(C7CCC(=O)NC7=O)C8=O)CC6)CC5)cc4C(F)(F)F)C3=O)c2)COC1 (stereo partly drawn) [Example 43, 2-(2,6-dioxopiperidin-3-yl)-5-{4-[(1r,4r)-4-({[2-(3-{3-[(4-methyl-4H-1,2,4-triazol-3-yl)methyl]oxetan-3-yl}phenyl)-3-oxo-7-(trifluoromethyl)-2,3-dihydro-1H-isoindol-5-yl]methyl}amino)cyclohexyl]piperazin-1-yl}-2,3-dihydro-1H-isoindole-1,3-dione] | 5 to 50 | < 35 |
| Cn1cnnc1CC1(c2cccc(N3Cc4c(cc(CN5CCN(c6ccc7c(c6)CN(C6CCC(=O)NC6=O)C7=O)CC5)cc4C(F)(F)F)C3=O)c2)COC1 (stereo not drawn) [Example 41, 3-[5-(4-{[2-(3-{3-[(4-methyl-4H-1,2,4-triazol-3-yl)methyl]oxetan-3-yl}phenyl)-3-oxo-7-(trifluoromethyl)-2,3-dihydro-1H-isoindol-5-yl]methyl}piperazin-1-yl)-1-oxo-2,3-dihydro-1H-isoindol-2-yl]piperidine-2,6-dione] | 5 to 50 | > 70 |
| CC(C)n1c(=O)n(C2CCC(=O)NC2=O)c2cccc(N3CCC(O[C@H]4CC[C@H](CN5CCN(Cc6cc7c(c(C(F)(F)F)c6)CN(c6cccc([C@]8(Cc9nncn9C)C[C@@H](C#N)C8)c6)C7=O)C(C)(C)C5)CC4)CC3)c21 (stereo partly drawn) [Example 275, (1r,3r)-3-(3-{6-[(2,2-dimethyl-4-{[(1r,4r)-4-({1-[1-(2,6-dioxopiperidin-3-yl)-2-oxo-3-(propan-2-yl)-2,3-dihydro-1H-1,3-benzodiazol-4-yl]piperidin-4-yl}oxy)cyclohexyl]methyl}piperazin-1-yl)methyl]-1-oxo-4-(trifluoromethyl)-2,3-dihydro-1H-isoindol-2-yl}phenyl)-3-[(4-methyl-4H-1,2,4-triazol-3-yl)methyl]cyclobutane-1-carbonitrile] | 5 to 50 | 35 to 70 |
| Cn1cnnc1CC1(c2cccc(N3Cc4c(cc(CN5CCC(CN6CC7(CCN(c8ccc9c(c8)CN(C8CCC(=O)NC8=O)C9=O)CC7)C6)CC5)cc4C(F)(F)F)C3=O)c2)COC1 (stereo not drawn) [Example 66, 3-(5-{2-[(1-{[2-(3-{3-[(4-methyl-4H-1,2,4-triazol-3-yl)methyl]oxetan-3-yl}phenyl)-3-oxo-7-(trifluoromethyl)-2,3-dihydro-1H-isoindol-5-yl]methyl}piperidin-4-yl)methyl]-2,7-diazaspiro[3.5]nonan-7-yl}-1-oxo-2,3-dihydro-1H-isoindol-2-yl)piperidine-2,6-dione] | > 500 |  |
| Cn1cnnc1CC1(c2cccc(N3Cc4c(cc(CN5CCN(c6ccc7c(c6)C(=O)N(C6CCC(=O)NC6=O)C7=O)CC5)cc4C(F)(F)F)C3=O)c2)COC1 (stereo not drawn) [Example 32, 2-(2,6-dioxopiperidin-3-yl)-5-(4-{[2-(3-{3-[(4-methyl-4H-1,2,4-triazol-3-yl)methyl]oxetan-3-yl}phenyl)-3-oxo-7-(trifluoromethyl)-2,3-dihydro-1H-isoindol-5-yl]methyl}piperazin-1-yl)-2,3-dihydro-1H-isoindole-1,3-dione] | 50 to 500 | > 70 |
| Cn1cnnc1CC1(c2cccc(-n3cc4c(C(F)(F)F)cc(CN5CCC(CN6CCC(CN7CCN(c8ccc9c(c8F)CN(C8CCC(=O)NC8=O)C9=O)CC7)CC6)CC5)cc4n3)c2)COC1 (stereo not drawn) [Example 299, 3-{4-fluoro-5-[4-({1-[(1-{[2-(3-{3-[(4-methyl-4H-1,2,4-triazol-3-yl)methyl]oxetan-3-yl}phenyl)-4-(trifluoromethyl)-2H-indazol-6-yl]methyl}piperidin-4-yl)methyl]piperidin-4-yl}methyl)piperazin-1-yl]-1-oxo-2,3-dihydro-1H-isoindol-2-yl}piperidine-2,6-dione] | > 500 |  |
| COc1c(N2CCC(OC3CCC4(CC3)CN(c3cc5c(c(C(F)(F)F)c3)CN(c3cccc(C6(Cc7nncn7C)COC6)c3)C5=O)C4)CC2)ccc2c1CN(C1CCC(=O)NC1=O)C2=O (stereo not drawn) [Example 149, 3-[4-methoxy-5-[4-[[2-[2-[3-[3-[(4-methyl-1,2,4-triazol-3-yl)methyl]oxetan-3-yl]phenyl]-3-oxo-7-(trifluoromethyl)isoindolin-5-yl]-2-azaspiro[3.5]nonan-7-yl]oxy]-1-piperidyl]-1-oxo-isoindolin-2-yl]piperidine-2,6-dione] | 5 to 50 | 35 to 70 |
| Cn1cnnc1CC1(c2cccc(-n3cc4c(C(F)(F)F)cc(CN5CCC[C@H](CN6CCC(OC7CCN(c8ccc9c(c8F)CN(C8CCC(=O)NC8=O)C9=O)CC7)CC6)C5)cc4n3)c2)COC1 (stereo partly drawn) [Example 259, 3-(4-fluoro-5-{4-[(1-{[(3R)-1-{[2-(3-{3-[(4-methyl-4H-1,2,4-triazol-3-yl)methyl]oxetan-3-yl}phenyl)-4-(trifluoromethyl)-2H-indazol-6-yl]methyl}piperidin-3-yl]methyl}piperidin-4-yl)oxy]piperidin-1-yl}-1-oxo-2,3-dihydro-1H-isoindol-2-yl)piperidine-2,6-dione] | > 500 |  |
| Cn1cnnc1CC(C)(C)c1cccc(N2Cc3c(cc(CN4CCC[C@H](CN5CCN(C[C@H]6CC[C@@H](OC7CCN(c8ccc9c(c8F)CN(C8CCC(=O)NC8=O)C9=O)CC7)CC6)CC5)C4)cc3C(F)(F)F)C2=O)c1 (stereo partly drawn) [Example 164, 3-[4-fluoro-1-oxo-5-(4-{[(1r,4r)-4-[(4-{[(3S)-1-[(2-{3-[2-methyl-1-(4-methyl-4H-1,2,4-triazol-3-yl)propan-2-yl]phenyl}-3-oxo-7-(trifluoromethyl)-2,3-dihydro-1H-isoindol-5-yl)methyl]piperidin-3-yl]methyl}piperazin-1-yl)methyl]cyclohexyl]oxy}piperidin-1-yl)-2,3-dihydro-1H-isoindol-2-yl]piperidine-2,6-dione] | < 5 | > 70 |
| Cn1cnnc1CC1(c2cccc(N3Cc4c(cc(CN5CCC(CC6CCN(c7ccc8c(c7)C(=O)N(C7CCC(=O)NC7=O)C8=O)CC6)CC5)cc4C(F)(F)F)C3=O)c2)COC1 (stereo not drawn) [Example 78, 2-(2,6-dioxopiperidin-3-yl)-5-{4-[(1-{[2-(3-{3-[(4-methyl-4H-1,2,4-triazol-3-yl)methyl]oxetan-3-yl}phenyl)-3-oxo-7-(trifluoromethyl)-2,3-dihydro-1H-isoindol-5-yl]methyl}piperidin-4-yl)methyl]piperidin-1-yl}-2,3-dihydro-1H-isoindole-1,3-dione] | > 500 |  |
| Cn1cnnc1CC1(c2cccc(N3Cc4c(cc(CN5CCC(CCC6CCN(c7ccc8c(c7)C(=O)N(C7CCC(=O)NC7=O)C8=O)CC6)CC5)cc4C(F)(F)F)C3=O)c2)COC1 (stereo not drawn) [Example 71, 2-(2,6-dioxopiperidin-3-yl)-5-{4-[2-(1-{[2-(3-{3-[(4-methyl-4H-1,2,4-triazol-3-yl)methyl]oxetan-3-yl}phenyl)-3-oxo-7-(trifluoromethyl)-2,3-dihydro-1H-isoindol-5-yl]methyl}piperidin-4-yl)ethyl]piperidin-1-yl}-2,3-dihydro-1H-isoindole-1,3-dione] | > 500 |  |
| Cc1cc(N2CCC(CN3CCC4(CC3)CN(c3cc(C(F)(F)F)c5cn(-c6cccc([C@]7(Cc8nncn8C)C[C@@H](C#N)C7)c6)nc5c3)C4)CC2)c(F)c2c1C(=O)N(C1CCC(=O)NC1=O)C2 (stereo partly drawn) [Example 154, 3-[3-[6-[7-[[1-[2-(2,6-dioxo-3-piperidyl)-4-fluoro-7-methyl-1-oxo-isoindolin-5-yl]-4-piperidyl]methyl]-2,7-diazaspiro[3.5]nonan-2-yl]-4-(trifluoromethyl)indazol-2-yl]phenyl]-3-[(4-methyl-1,2,4-triazol-3-yl)methyl]cyclobutanecarbonitrile] | > 500 |  |
